This passage reports IC50 results from patent US12029739B2, “SHP2 inhibitor and use thereof” (KANAPH THERAPEUTICS INC., priority 2021, dated 2024).

The test system of assay [1] is phospho-ERK in MIA PaCa2 or H358 cells. Description: Phospho-ERK assay (AlphaLisa). The format is cell-based. (Alpha assays give light when donor and acceptor beads are brought close together.)
The target of another assay is T1, SHP2 (full length) (Homo sapiens, UniProt Q06124).
T1 construct: SHP2 (full length, diluted to 100 pM final concentration in reaction buffer, BPS bioscience, US); purchased BPS bioscience, US
T1 sequence (Q06124 1-593): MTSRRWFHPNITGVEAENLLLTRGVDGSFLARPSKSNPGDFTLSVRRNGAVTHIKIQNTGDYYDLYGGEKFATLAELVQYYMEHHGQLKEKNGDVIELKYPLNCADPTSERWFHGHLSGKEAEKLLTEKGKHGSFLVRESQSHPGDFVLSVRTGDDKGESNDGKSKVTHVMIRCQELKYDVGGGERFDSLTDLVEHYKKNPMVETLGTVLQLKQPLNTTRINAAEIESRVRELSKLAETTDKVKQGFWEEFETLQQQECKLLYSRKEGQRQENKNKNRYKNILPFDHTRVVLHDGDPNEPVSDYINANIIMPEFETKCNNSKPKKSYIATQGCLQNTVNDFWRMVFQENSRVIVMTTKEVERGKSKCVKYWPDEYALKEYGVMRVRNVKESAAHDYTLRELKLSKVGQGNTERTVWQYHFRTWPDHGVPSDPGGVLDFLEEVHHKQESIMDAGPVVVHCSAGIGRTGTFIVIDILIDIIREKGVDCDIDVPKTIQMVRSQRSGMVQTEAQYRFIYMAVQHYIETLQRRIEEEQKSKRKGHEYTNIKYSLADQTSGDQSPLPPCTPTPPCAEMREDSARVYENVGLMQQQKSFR
Description: Phosphatase assay (PTPase assay) with DiFMUP substrate. The format is biochemical. Conditions: SHP2 activated with SHP2 activating peptide, DiFMUP 80 μM, 2 hours, fluorescence.

Where [2] appears, read: MIA PaCa2 or H358 cells, compound incubated 1.5 hours, read-out: IC50 (p-ERK).
[3] abbreviates: 1.5 h, MIA PaCa2 or H358 cells, compound incubated 1.5 hours, read-out: IC50 (p-ERK).
[4] abbreviates: 1.5 h, read-out: IC50 (p-ERK, nM).

Read-outs that look alike come from different tables or passages of the source.

On to `COCCn1cnc2ccc(Sc3cnc(N4CCC5(CC4)Cc4ncsc4C5N)cn3)c(Cl)c2c1=O` (stereo in doubt) [Example 145, 6-[5-[(6R)-6-aminospiro[4,6-dihydrocyclopenta[d]thiazole-5,4′-piperidin]-1′-yl]pyrazin-2-yl]sulfanyl-5-chloro-3-(2-methoxyethyl)quinazolin-4-one], for which the IC50 in assay [1] (setting [2]) was in the range of 45 to 1500 nM; at SHP2 (full length) (read-out: IC50 (PTPase aS say)), 3 to 100 nM.
As for `COC(=O)c1cccc(Sc2cnc(N3CCC(C)(N)CC3)cn2)c1Cl` [Example 1, methyl 3-((5-(4-amino-4-methylpiperidin-1-yl)pyrazin-2-yl)thio)-2-chlorobenzoate], the IC50 in assay [1] (setting [3]) is 45 to 1500 nM; at SHP2 (full length) (read-out: IC50 (PTPase aS say)), 3 to 100 nM.
With `CCOC(=O)c1cccc(Sc2c(N)nc(N3CCC(C)(N)CC3)n(C)c2=O)c1Cl` [Example 2, ethyl 3-((4-amino-2-(4-amino-4-methylpiperidin-1-yl)-1-methyl-6-oxo-1,6-dihydropyrimidin-5-yl)thio)-2-chlorobenzoate], the IC50 is 45 to 1500 nM in assay [1] (setting [2]) and greater than 100 nM at SHP2 (full length) (read-out: IC50 (PTPase aS say)).
Take `CC1(CN)CCN(c2cnc(Sc3ccc4nc[nH]c(=O)c4c3Cl)cn2)CC1` [Example 3, 6-((5-(4-(aminomethyl)-4-methylpiperidin-1-yl)pyrazin-2-yl)thio)-5-chloroquinazolin-4(3H)-one]: the IC50 in assay [1] (setting [3]) fell in the range of 45 to 1500 nM; at SHP2 (full length) (read-out: IC50 (PTPase aS say)) it was 3 to 100 nM.
The like results for `CC1(N)CCN(c2cnc(Sc3ccc4nc[nH]c(=O)c4c3Cl)cn2)CC1` [Example 4, 6-((5-(4-amino-4-methylpiperidin-1-yl)pyrazin-2-yl)thio)-5-chloroquinazolin-4(3H)-one] were, in that order, 45 to 1500 nM and 3 to 100 nM.
In the case of `C[C@@H]1OCC2(CCN(c3cnc(Sc4ccc5nc[nH]c(=O)c5c4Cl)cn3)CC2)[C@@H]1N` [Example 5, 6-((5-((3S,4S)-4-amino-3-methyl-2-oxa-8-azaspiro[4.5]decan-8-yl)pyrazin-2-yl)thio)-5-chloroquinazolin-4(3H)-one], the IC50 was 45 to 1500 nM in assay [1] (setting [3]) and 3 to 100 nM on SHP2 (full length) (read-out: IC50 (PTPase aS say)).
`CC1(CN)CCN(c2cnc(Sc3cccc(S(=O)(=O)F)c3Cl)cn2)CC1` [Example 6, 3-((5-(4-(aminomethyl)-4-methylpiperidin-1-yl)pyrazin-2-yl)thio)-2-chlorobenzenesulfonyl fluoride]: the IC50 in assay [1] (setting [4]) fell in the range of 45 to 1500 nM; against SHP2 (full length) (IC50 (PTPase aS say, nM)), 3 to 100 nM.
With `CC1(N)CCN(c2cnc(Sc3cccc(S(=O)(=O)F)c3Cl)cn2)CC1` [Example 7, 3-((5-(4-amino-4-methylpiperidin-1-yl)pyrazin-2-yl)thio)-2-chlorobenzenesulfonyl fluoride], the IC50 in assay [1] (setting [4]) lay within 45 to 1500 nM; on SHP2 (full length) (IC50 (PTPase aS say, nM)), 3 to 100 nM.
`CNS(=O)(=O)c1cccc(Sc2cnc(N3CCC(C)(N)CC3)cn2)c1Cl` [Example 8, 3-((5-(4-amino-4-methylpiperidin-1-yl)pyrazin-2-yl)thio)-2-chloro-N-methylbenzenesulfonamide]: the figures for the IC50 (in assay [1] (setting [3]); at SHP2 (full length) (read-out: IC50 (PTPase aS say))) were greater than 1500 nM and 3 to 100 nM, respectively.
In the case of `Cc1nc2ccc(Sc3cnc(N4CCC(C)(CN)CC4)cn3)c(Cl)c2c(=O)n1Cc1cccc(S(=O)(=O)F)c1` [Example 21, 3-((6-((5-(4-(aminomethyl)-4-methylpiperidin-1-yl)pyrazin-2-yl)thio)-5-chloro-2methyl-4-oxoquinazolin-3(4H)-yl)methyl)benzenesulfonyl fluoride], the IC50 in assay [1] (setting [2]) lay within 45 to 1500 nM.
For the compound `C[C@@H]1OCC2(CCN(c3cnc(Sc4ccc5ncn(CC6CCCN6)c(=O)c5c4Cl)cn3)CC2)[C@@H]1N` (stereo partly drawn) [Example 54, 6-((5-((3S,4S)-4-amino-3-methyl-2-oxa-8-azaspiro[4.5]decan-8-yl)pyrazin-2-yl)thio)-5-chloro-3-(pyrrolidin-2-ylmethyl)quinazolin-4(3H)-one], the IC50 on SHP2 (full length) (read-out: IC50 (PTPase aS say)) fell in the range of 3 to 100 nM.
Same read-out and setting: with `C[C@@H]1OCC2(CCN(c3cnc(Sc4ccc5ncn(CC6CCNC6)c(=O)c5c4Cl)cn3)CC2)[C@@H]1N` (stereo partly drawn) [Example 55, 6-((5-((3S,4S)-4-amino-3-methyl-2-oxa-8-azaspiro[4.5]decan-8-yl)pyrazin-2-yl)thio)-5-chloro-3-(pyrrolidin-3-ylmethyl)quinazolin-4(3H)-one] the figure was 3 to 100 nM; with `C[C@@H]1OCC2(CCN(c3cnc(Sc4ccc5ncn(Cc6ccon6)c(=O)c5c4Cl)cn3)CC2)[C@@H]1N` [Example 56, 6-((5-((3S,4S)-4-amino-3-methyl-2-oxa-8-azaspiro[4.5]decan-8-yl)pyrazin-2-yl)thio)-5-chloro-3-(isoxazol-3-ylmethyl)quinazolin-4(3H)-one], less than 3 nM.
The same measure, in the same setting: with `C[C@@H]1OCC2(CCN(c3cnc(Sc4ccc5ncn(Cc6ccno6)c(=O)c5c4Cl)cn3)CC2)[C@@H]1N` [Example 57, 6-((5-((3S,4S)-4-amino-3-methyl-2-oxa-8-azaspiro[4.5]decan-8-yl)pyrazin-2-yl)thio)-5-chloro-3-(isoxazol-5-ylmethyl)quinazolin-4(3H)-one] the figure was less than 3 nM; with `C[C@@H]1OCC2(CCN(c3cnc(Sc4ccc5ncn(CCO)c(=O)c5c4Cl)cn3)CC2)[C@@H]1N` [Example 58, 6-((5-((3S,4S)-4-amino-3-methyl-2-oxa-8-azaspiro[4.5]decan-8-yl)pyrazin-2-yl)thio)-5-chloro-3-(2-hydroxyethyl)quinazolin-4(3H)-one], 3 to 100 nM.
For `C[C@@H]1OCC2(CCN(c3cnc(Sc4ccnc(C(=O)NCc5ccccc5)c4Cl)cn3)CC2)[C@@H]1N` [Example 86, 4-((5-((3S,4S)-4-amino-3-methyl-2-oxa-8-azaspiro[4.5]decan-8-yl)pyrazin-2-yl)thio)-N-benzyl-3-chloropicolinamide], the IC50 on SHP2 (full length) (read-out: IC50 (PTPase aS say)) lay within 3 to 100 nM.
Turning to `N[C@@H]1c2ccccc2CC12CCN(c1cnc(Sc3ccc4ncn(Cc5ccccc5)c(=O)c4c3Cl)cn1)CC2` [Example 99, (S)-6-((5-(1-amino-1,3-dihydrospiro(indene-2,4′-piperidin]-1′-yl)pyrazin-2-yl)thio)-3-benzyl-5-chloroquinazolin-4(3H)-one], the IC50 on SHP2 (full length) (read-out: IC50 (PTPase aS say)) is less than 3 nM.
On the same count and under the same terms, the figure for `N[C@H]1c2ccccc2CC12CCN(c1cnc(Sc3ccc4ncn(Cc5ccccc5)c(=O)c4c3Cl)cn1)CC2` [Example 100] is 3 to 100 nM.
Same read-out and setting: the figure for `N[C@H]1c2cccnc2CC12CCN(c1cnc(Sc3ccc4ncn(Cc5ccccc5)c(=O)c4c3Cl)cn1)CC2` [Example 101, (R)-6-((5-(5-amino-5,7-dihydrospiro[cyclopenta[b]pyridine-6,4′-piperidin]-1′-yl)pyrazin-2-yl)thio)-3-benzyl-5-chloroquinazolin-4(3H)-one] is 3 to 100 nM.
On the same count and under the same terms, the figure for `COc1ccc2c(c1)[C@@H](N)C1(CCN(c3cnc(Sc4ccc5ncn(CC(C)(C)O)c(=O)c5c4Cl)cn3)CC1)C2` [Example 162, (S)-6-((5-(1-amino-6-methoxy-1,3-dihydrospiro[indene-2,4′-piperidin]-1′-yl)pyrazin-2-yl)thio)-5-chloro-3-(2-hydroxy-2-methylpropyl)quinazolin-4(3H)-one] is less than 3 nM.
As to `COCCn1cnc2ccc(Sc3ncc(N4CCC5(CC4)Cc4ncsc4[C@H]5N)nc3N)c(Cl)c2c1=O` [Example 164, (S)-6-((3-amino-5-(6-amino-4,6-dihydrospiro[cyclopenta[d]thiazole-5,4′-piperidin]-1′-yl)pyrazin-2-yl)thio)-5-chloro-3-(2-methoxyethyl)quinazolin-4(31-1)-one], the IC50 on SHP2 (full length) (read-out: IC50 (PTPase aS say)) was less than 3 nM.
Consider `COCCn1cnc2ccc(Sc3cnc(N4CCC5(CC4)CO[C@@H](C)[C@H]5N)nn3)c(Cl)c2c1=O` [Example 183, 6-((3-((3S,4S)-4-amino-3-methyl-2-oxa-8-azaspiro[4.5]decan-8-yl)-1,2,4-triazin-6-yl)thio)-5-chloro-3-(2-methoxyethyl)quinazolin-4(3H)-one], for which, in assay [1] (setting [2]), the IC50 is greater than 1500 nM.
As to `Cn1c(N2CCN(C[C@@H](N)Cc3ccncc3)CC2)nc(N)c(Sc2cccc(Cl)c2Cl)c1=O` [Example 187, (S)-6-amino-2-(4-(2-amino-3-(pyridin-4-yl)propyl)piperazin-1-yl)-5-((2,3-dichlorophenyl)thio)-3-methylpyrimidin-4(3H)-one], the IC50 at SHP2 (full length) (read-out: IC50 (PTPase aS say)) is greater than 100 nM.
On the same count and under the same terms, the figure for `Cn1c(N2CCN(CCN)CC2)nc(N)c(Sc2ccnc(N)c2Cl)c1=O` [Example 192] is greater than 100 nM.
With `CC1(N)CCN(c2cnc(-c3cccc(Cl)c3Cl)c(N)n2)CC1` [SHP099, 6-(4-amino-4-methylpiperidin-1-yl)-3-(2,3-dichlorophenyl)pyrazin-2-amine, reference compound], the IC50 in assay [1] (setting [4]) is 45 to 1500 nM.
On to `C[C@@H]1OCC2(CCN(c3cnc(Sc4ccnc(N)c4Cl)c(N)n3)CC2)[C@@H]1N` [TNO155, (3S,4S)-8-(6-amino-5-((2-amino-3-chloropyridin-4-yl)thio)pyrazin-2-yl)-3-methyl-2-oxa-8-azaspiro[4.5]decan-4-amine, reference compound], for which, in assay [1] (setting [2]), the IC50 is less than 45 nM.

One may read the IC50 as the midpoint of a concentration-inhibition curve.
